{"source": "patent US20260317295A1", "about": "“NAV1.8 INHIBITORS, PREPARATION METHOD THEREFOR AND USE THEREOF” (SHANGHAI INSTITUTE OF MATERIA MEDICA, CHINESE ACADEMY OF …, priority 2023, published 2026)", "origin": "cited, not measured here", "key": {"Nav1.8 [1]": {"tested_on": "Nav1.8", "conditions": "rodents"}, "Nav1.8 [2]": {"tested_on": "Nav1.8", "conditions": "rat, STZ-induced diabetic neuropathy, intraperitoneal or intraplantar"}, "Nav1.8 [3]": {"tested_on": "Nav1.8", "conditions": "L7-1.8TG transgenic mice"}}}
{"compound": "COc1cc(NC(=O)c2ccc(-c3ccc(Cl)cc3)o2)cc(OC)c1", "note": "[Compound A-803467]", "values": [{"measurement": "pain responses", "setting": "Nav1.8 [1]", "result": "effectively alleviate pain responses"}, {"measurement": "pain behavioral responses", "setting": "Nav1.8 [2]", "result": "dose-dependently alleviate the animals' pain behavioral responses"}]}
{"compound": "CNC(=O)c1ccc(-c2cc(Cl)cc(Cl)c2Cl)c(N)n1", "note": "[PF-01247324]", "values": [{"measurement": "MS behaviors", "setting": "Nav1.8 [3]", "result": "alleviate the MS behaviors"}]}
